Source: US8575156B2, “Cyclic inhibitors of 11β-hydroxysteroid dehydrogenase 1” (Vitae Pharmaceuticals, Inc., priority 2007, dated 2013)
pIC50: −log10 of the molar value. Where two headings read alike, the source gives them in different places.

What was measured:
11β-HSD1 [1] = target: T1, 11β-HSD1 (Homo sapiens, UniProt P28845); settings: for pIC50: read-out: IC50 Range
11β-HSD1 [2] = target: T1, 11β-HSD1; assay: biochemical; settings: for inhibition at 0.1111 µM: read-out: Average % inhibition at 111.1 nM, Biological Test Example 1, 111.1 nM compound; for pIC50: IC50 Range, Biological Test Example 1, microsomes from CHO cells overexpressing human 11β-HSD1; for inhibition at 0.1 µM: read-out: Average % inhibition at 100 nM, Biological Test Example 1, 100 nM compound
[3] = Biological Test Example 1, 100 nM compound, 0.1 µM
[4] = Biological Test Example 1, microsomes from CHO cells overexpressing human 11β-HSD1
[5] = Biological Test Example 1, 111.1 nM compound, 0.1111 µM
[6] = Biological Test Example 1, 100 nM, 0.1 µM

T1 sequence (P28845 whole entry): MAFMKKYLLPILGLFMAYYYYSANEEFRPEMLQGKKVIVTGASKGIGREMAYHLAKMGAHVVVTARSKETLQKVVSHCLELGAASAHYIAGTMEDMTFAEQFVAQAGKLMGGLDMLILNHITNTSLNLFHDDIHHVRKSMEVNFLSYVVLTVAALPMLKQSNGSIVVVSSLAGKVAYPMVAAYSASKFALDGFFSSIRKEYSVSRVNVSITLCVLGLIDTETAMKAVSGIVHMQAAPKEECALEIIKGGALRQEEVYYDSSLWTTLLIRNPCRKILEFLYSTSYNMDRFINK

Row | Molecule | Average % inhibition at 100 nM (11β-HSD1 [1]; [3]) [%] | pIC50 (11β-HSD1 [1]; [4]) | pIC50 (11β-HSD1 [2]) | further results
1 | O=C1OC(CCO)(c2ccccc2F)CCN1c1cccc(-c2ccc(F)cc2)n1 (single isomer, unassigned) [EXAMPLE 104 Isomer 1] |  |  | 6.00 to 7.00 | Average % inhibition at 111.1 nM (11β-HSD1 [1]; [5]): 44.3%
2 | O=C1OC(CCO)(c2ccccc2F)CCN1c1cccc(-c2ccc(F)cc2)n1 (single isomer, unassigned) [EXAMPLE 104 Isomer 2] |  |  | > 7.00 | Average % inhibition at 111.1 nM (11β-HSD1 [1]; [5]): 98.1%
3 | C=CCC1(c2ccc(F)cc2)CCN([C@@H](C)c2ccc(Br)cn2)C(=O)O1 (single isomer, unassigned) [EXAMPLE 128 Isomer 1] |  |  | 6.00 to 7.00 | Average % inhibition at 111.1 nM (11β-HSD1 [1]; [5]): 27.5%; inhibition at 0.1 µM (11β-HSD1 [2]): 26.1%
4 | C=CCC1(c2ccc(F)cc2)CCN([C@@H](C)c2ccc(Br)cn2)C(=O)O1 (single isomer, unassigned) [EXAMPLE 128 Isomer 2] |  |  | < 6.00 | Average % inhibition at 111.1 nM (11β-HSD1 [1]; [5]): 6.5%
5 | C=CCC1(c2ccc(F)cc2)CCN([C@@H](CC)c2ccc(Br)cc2)C(=O)O1 (single isomer, unassigned) [EXAMPLE 130 Isomer 2] |  | > 7.00 |  | inhibition at 0.1111 µM (11β-HSD1 [2]): 87.7%
6 | C=CCC1(c2cccs2)CCN([C@@H](C)c2ccc(Br)cc2)C(=O)O1 (single isomer, unassigned) [EXAMPLE 157 Isomer 2] | 92.9 | > 7.00 |  | inhibition at 0.1111 µM (11β-HSD1 [2]): 90.7%
7 | CC1CC(CCO)(c2ccc(F)cc2)OC(=O)N1[C@@H](C)c1ccc(Br)cc1 (single isomer, unassigned) [EXAMPLE 163 Isomer 2] | 96.9 |  | > 7.00 | 
8 | CC1CC(CCO)(c2ccc(F)cc2)OC(=O)N1[C@@H](C)c1ccc(Br)cc1 (single isomer, unassigned) [EXAMPLE 163 Isomer 3] | 11.3 |  | < 7.00 | 
9 | CC(C)C1(CCCO)CCN([C@@H](C)c2ccc(Cl)cc2)C(=O)O1 (single isomer, unassigned) [EXAMPLE 187 Isomer 1] |  |  | > 7.00 | Average % inhibition at 100 nM (11β-HSD1 [1]; 0.1 µM): 98.7%
10 | O=C1OC(CCCO)(c2ccccc2)CCN1C1CC1c1ccccc1 (single isomer, unassigned) [EXAMPLE 188 Isomer 1, 6-(3-hydroxypropyl)-6-phenyl-3-(2-phenylcyclopropyl)-1,3-oxazinan-2-one] | 77.0 |  | > 7.00 | 
11 | O=C1OC(CCCO)(c2ccccc2)CCN1C1CC1c1ccccc1 (single isomer, unassigned) [EXAMPLE 188 Isomer 2, 6-(3-hydroxypropyl)-6-phenyl-3-(2-phenylcyclopropyl)-1,3-oxazinan-2-one] | 31.7 |  | < 7.00 | 
12 | CC(C)(C)OC(=O)N1CCC(N2CCC(CCCO)(c3ccccc3)OC2=O)C1 (single isomer, unassigned) [EXAMPLE 208 Isomer 1] | 76.6 |  | > 7.00 | 
13 | CC(C)(C)OC(=O)N1CCC(N2CCC(CCCO)(c3ccccc3)OC2=O)C1 (single isomer, unassigned) [EXAMPLE 208 Isomer 2] | 38.5 |  | < 7.00 | 
14 | CC(C)(C)OC(=O)N1CCC(N2CCC(CCCO)(c3ccccc3)OC2=O)C1 (single isomer, unassigned) [EXAMPLE 208 Isomer 3] | 64.6 |  | > 7.00 | 
15 | CC(C)(C)OC(=O)N1CCC(N2CCC(CCCO)(c3ccccc3)OC2=O)C1 (single isomer, unassigned) [EXAMPLE 208 Isomer 4] | 29.3 |  | > 7.00 | 
16 | C[C@@H](c1ccc(-c2ccc(F)cc2)cc1)N1CC[C@](CC(O)CNS(C)(=O)=O)(c2ccc(F)cc2)OC1=O (single isomer, unassigned) [EXAMPLE 277 Isomer 2] |  |  |  | Average % inhibition at 100 nM (11β-HSD1 [1]; 0.1 µM): 65.6%; pIC50 (11β-HSD1 [1]): > 7.00
17 | C=CCCC1(c2ccc(F)cc2)CCN([C@@H](C)c2ccc(OC(F)F)cc2)C(=O)O1 (single isomer, unassigned) [EXAMPLE 323 Isomer 2] |  | > 7.00 |  | Average % inhibition at 100 nM (11β-HSD1 [1]; 0.1 µM): 100.9%
18 | C[C@@H](c1ccc(Br)cc1)N1CCC(CCCO)(C(C)(C)C)OC1=O (single isomer, unassigned) [EXAMPLE 335 Isomer 2] |  | > 7.00 |  | Average % inhibition at 100 nM (11β-HSD1 [1]; [6]): 96.7%
19 | (R)-3-((S)-1-(2′,4′-difluorobiphenyl-4-yl)propyl)-6-(4-fluorophenyl)-6-(2-hydroxyethyl)-1,3-oxazinan-2-one [EXAMPLE 175 Isomer 2] |  |  |  | Average % inhibition at 111.1 nM (11β-HSD1 [1]): 25.8%; pIC50 (11β-HSD1 [1]): 6.00 to 7.00
20 | (R)-6-(3-hydroxypropyl)-3-((S)-1-(4-methoxyphenyl)ethyl)-6-phenyl-1,3-oxazinan-2-one [EXAMPLE 282 Isomer 1] |  |  |  | Average % inhibition at 100 nM (11β-HSD1 [1]): 94.0%; pIC50 (11β-HSD1 [1]): > 7.00
21 | (S)-3-((S)-1-(2′,4′-difluorobiphenyl-4-yl)propyl)-6-(4-fluorophenyl)-6-(2-hydroxyethyl)-1,3-oxazinan-2-one [EXAMPLE 175 Isomer 1] |  |  |  | Average % inhibition at 111.1 nM (11β-HSD1 [1]): 93.7%; pIC50 (11β-HSD1 [1]): > 7.00
22 | (S)-6-(3-hydroxypropyl)-3-((S)-1-(4-methoxyphenyl)ethyl)-6-phenyl-1,3-oxazinan-2-one [EXAMPLE 282 Isomer 2] |  |  |  | Average % inhibition at 100 nM (11β-HSD1 [1]): 77.8%; pIC50 (11β-HSD1 [1]): > 7.00

Continued, in another order:

Row | Average % inhibition at 100 nM (11β-HSD1 [1]; [3]) [%] | pIC50 (11β-HSD1 [1]; [4]) | pIC50 (11β-HSD1 [2]) | Molecule | further results
23 | 90.8 | > 7.00 |  | C[C@@H](c1ccc(-c2ccc(F)cc2F)cc1)N1CC[C@](CC(O)CO)(c2ccc(F)cc2)OC1=O (single isomer, unassigned) [EXAMPLE 52 Isomer 2] | inhibition at 0.1111 µM (11β-HSD1 [2]): 97%
24 |  |  | > 7.00 | O=C1OC(CCO)(c2ccccc2)CCN1c1ccc(F)c(-c2ccc(F)cc2)c1 (single isomer, unassigned) [EXAMPLE 96 Isomer 1] | Average % inhibition at 111.1 nM (11β-HSD1 [1]; [5]): 98.5%; inhibition at 0.1 µM (11β-HSD1 [2]): 88.3%
25 |  |  | < 6.00 | O=C1OC(CCO)(c2ccccc2)CCN1c1ccc(F)c(-c2ccc(F)cc2)c1 (single isomer, unassigned) [EXAMPLE 96 Isomer 2] | Average % inhibition at 111.1 nM (11β-HSD1 [1]; [5]): 9.7%
26 | 17.4 |  | < 6.00 | C[C@@H](c1ccccc1)N1CCC(CO)(c2ccc(F)cc2)OC1=O (single isomer, unassigned) [EXAMPLE 114 Isomer 1] | 
27 | 66.6 |  | > 7.00 | C[C@@H](c1ccccc1)N1CCC(CO)(c2ccc(F)cc2)OC1=O (single isomer, unassigned) [EXAMPLE 114 Isomer 2] | 
28 |  | > 7.00 |  | CC[C@@H](c1ccc(Br)cc1)N1CCC(CCO)(c2ccc(F)cc2)OC1=O (single isomer, unassigned) [EXAMPLE 143 Isomer 2] | inhibition at 0.1 µM (11β-HSD1 [2]): 95.4%
29 |  | > 7.00 |  | C[C@@H](c1ccc(Br)cc1)N1CC[C@](CC(O)CO)(c2ccc(F)cc2)OC1=O (single isomer, unassigned) [EXAMPLE 144 Isomer 2] | Average % inhibition at 111.1 nM (11β-HSD1 [1]; [5]): 96.6%; inhibition at 0.1 µM (11β-HSD1 [2]): 95.3%
30 |  | > 7.00 |  | C=CCC1(c2cccs2)CCN([C@@H](C)c2ccc(-c3ccc(F)cc3)cc2)C(=O)O1 (single isomer, unassigned) [EXAMPLE 160 Isomer 2] | Average % inhibition at 111.1 nM (11β-HSD1 [1]; [5]): 95.2%; inhibition at 0.1 µM (11β-HSD1 [2]): 95.9%
31 | 95.7 |  | > 7.00 | C[C@@H](c1ccc(-c2ccc(F)cc2F)cc1)N1CCC(CCCO)(c2cccs2)OC1=O (single isomer, unassigned) [EXAMPLE 171 Isomer 1] | 
32 | 93.2 |  | > 7.00 | COc1ccc([C@H](C)N2CCC(CCCO)(c3ccc(F)cc3)OC2=O)cc1 (single isomer, unassigned) [EXAMPLE 201 Isomer 1] | 
33 | 27.0 |  | < 7.00 | COc1ccc([C@H](C)N2CCC(CCCO)(c3ccc(F)cc3)OC2=O)cc1 (single isomer, unassigned) [EXAMPLE 201 Isomer 2] | 
34 | 65.5 | > 7.00 |  | C[C@@H](c1ccc(-c2ccc(F)cc2)cc1)N1CC[C@](CC(O)CN(C)S(C)(=O)=O)(c2ccc(F)cc2)OC1=O (single isomer, unassigned) [EXAMPLE 278 Isomer 2] | 
35 |  | > 7.00 |  | C[C@@H](c1ccc(-c2ccc(F)cc2F)cc1)N1CCC(CCO)(C(C)(C)C)OC1=O (single isomer, unassigned) [EXAMPLE 336 Isomer 2] | Average % inhibition at 100 nM (11β-HSD1 [1]; [6]): 94.6%
36 |  | > 7.00 |  | C[C@@H](c1ccc(Br)cc1)N1CCC(CCO)(c2ccc(F)cc2F)OC1=O (single isomer, unassigned) [EXAMPLE 365 Isomer 2] | Average % inhibition at 100 nM (11β-HSD1 [1]; [6]): 61.1%
37 |  | > 7.00 |  | CC(O)C[C@]1(c2ccc(F)cc2)CCN([C@@H](C)c2ccc(Br)cc2)C(=O)O1 (single isomer, unassigned) [EXAMPLE 371 Isomer 2] | Average % inhibition at 100 nM (11β-HSD1 [1]; [6]): 97.4%
38 |  | > 7.00 |  | CC(O)CC[C@]1(c2ccc(F)cc2)CCN([C@@H](C)c2ccc(Cl)cc2)C(=O)O1 (single isomer, unassigned) [EXAMPLE 383 Isomer 2] | Average % inhibition at 100 nM (11β-HSD1 [1]; [6]): 95.3%
39 |  | > 7.00 |  | CC(O)C[C@]1(c2ccc(F)cc2)CCN([C@@H](C)c2ccc(C(F)(F)F)cc2)C(=O)O1 (single isomer, unassigned) [EXAMPLE 388 Isomer 2] | Average % inhibition at 100 nM (11β-HSD1 [1]; [6]): 94.7%
40 |  | > 7.00 |  | CC(O)CC[C@]1(c2ccc(F)cc2)CCN([C@@H](C)c2ccc(F)cc2)C(=O)O1 (single isomer, unassigned) [EXAMPLE 411 Isomer 2] | Average % inhibition at 100 nM (11β-HSD1 [1]; [6]): 93.1%
41 |  | > 7.00 |  | CC(C[C@]1(c2ccc(F)cc2)CCN([C@@H](C)c2ccc(Br)cc2)C(=O)O1)C(N)=O (single isomer, unassigned) [EXAMPLE 523 Isomer 2] | Average % inhibition at 100 nM (11β-HSD1 [1]; [6]): 85.4%
42 |  | > 7.00 |  | CC(CO)C[C@]1(c2ccc(F)cc2)CCN([C@@H](C)c2ccc(Br)cc2)C(=O)O1 (single isomer, unassigned) [EXAMPLE 577 Isomer 2] | Average % inhibition at 100 nM (11β-HSD1 [1]; [6]): 94.7%
